Measured values taken from PMC4728508 (Marine Drugs, 2016).

What was measured:
Kunming mice = details: mouse, in vivo, sc
rat α3β2 nAChR = rat α3β2 nAChR (Rattus norvegicus, UniProt P04757+P12390); format: cell-based
human α3β2 nAChR = human α3β2 nAChR (Homo sapiens, UniProt P17787+P32297); format: cell-based
Sequence of human α3β2 nAChR (P32297 32-505 limits assumed): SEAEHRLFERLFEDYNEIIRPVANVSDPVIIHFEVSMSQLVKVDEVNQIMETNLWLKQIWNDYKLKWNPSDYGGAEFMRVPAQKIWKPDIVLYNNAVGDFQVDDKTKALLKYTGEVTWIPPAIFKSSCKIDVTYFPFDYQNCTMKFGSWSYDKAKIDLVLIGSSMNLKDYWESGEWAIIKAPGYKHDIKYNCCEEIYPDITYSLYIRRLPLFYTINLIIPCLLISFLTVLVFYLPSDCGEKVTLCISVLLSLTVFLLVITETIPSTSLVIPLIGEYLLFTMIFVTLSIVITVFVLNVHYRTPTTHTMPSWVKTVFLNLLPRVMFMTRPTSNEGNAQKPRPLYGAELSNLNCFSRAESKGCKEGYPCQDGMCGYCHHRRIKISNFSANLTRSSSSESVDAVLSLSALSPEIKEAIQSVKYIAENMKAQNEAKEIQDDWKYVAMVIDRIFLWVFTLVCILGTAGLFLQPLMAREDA
Sequence of human α3β2 nAChR (P17787 26-502 limits assumed): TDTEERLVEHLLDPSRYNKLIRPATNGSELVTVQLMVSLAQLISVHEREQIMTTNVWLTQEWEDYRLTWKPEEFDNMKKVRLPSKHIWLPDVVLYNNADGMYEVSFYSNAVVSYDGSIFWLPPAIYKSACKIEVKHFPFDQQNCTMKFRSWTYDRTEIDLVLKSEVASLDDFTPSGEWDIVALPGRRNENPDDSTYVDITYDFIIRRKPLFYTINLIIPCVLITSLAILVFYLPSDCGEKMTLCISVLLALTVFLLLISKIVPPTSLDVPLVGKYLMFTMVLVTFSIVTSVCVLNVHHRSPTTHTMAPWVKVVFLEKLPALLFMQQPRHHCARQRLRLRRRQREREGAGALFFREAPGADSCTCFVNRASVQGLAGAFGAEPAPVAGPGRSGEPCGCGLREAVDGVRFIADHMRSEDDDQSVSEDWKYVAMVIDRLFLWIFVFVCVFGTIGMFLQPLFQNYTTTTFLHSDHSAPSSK

Sequence of rat α3β2 nAChR (P04757 26-499 limits assumed): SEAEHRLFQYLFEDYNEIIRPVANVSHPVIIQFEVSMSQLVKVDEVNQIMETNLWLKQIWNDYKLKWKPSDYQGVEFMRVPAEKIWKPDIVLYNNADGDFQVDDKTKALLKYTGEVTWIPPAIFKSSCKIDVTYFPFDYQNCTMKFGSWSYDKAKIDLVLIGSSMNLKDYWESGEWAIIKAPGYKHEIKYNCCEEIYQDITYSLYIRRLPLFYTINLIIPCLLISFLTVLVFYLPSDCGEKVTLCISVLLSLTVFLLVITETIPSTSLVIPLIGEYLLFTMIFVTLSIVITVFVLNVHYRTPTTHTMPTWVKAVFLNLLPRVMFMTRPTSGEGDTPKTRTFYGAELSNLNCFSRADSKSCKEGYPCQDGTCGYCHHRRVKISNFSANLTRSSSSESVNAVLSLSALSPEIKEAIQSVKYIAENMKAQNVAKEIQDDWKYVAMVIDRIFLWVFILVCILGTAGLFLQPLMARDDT
Sequence of rat α3β2 nAChR (P12390 25-500 limits assumed): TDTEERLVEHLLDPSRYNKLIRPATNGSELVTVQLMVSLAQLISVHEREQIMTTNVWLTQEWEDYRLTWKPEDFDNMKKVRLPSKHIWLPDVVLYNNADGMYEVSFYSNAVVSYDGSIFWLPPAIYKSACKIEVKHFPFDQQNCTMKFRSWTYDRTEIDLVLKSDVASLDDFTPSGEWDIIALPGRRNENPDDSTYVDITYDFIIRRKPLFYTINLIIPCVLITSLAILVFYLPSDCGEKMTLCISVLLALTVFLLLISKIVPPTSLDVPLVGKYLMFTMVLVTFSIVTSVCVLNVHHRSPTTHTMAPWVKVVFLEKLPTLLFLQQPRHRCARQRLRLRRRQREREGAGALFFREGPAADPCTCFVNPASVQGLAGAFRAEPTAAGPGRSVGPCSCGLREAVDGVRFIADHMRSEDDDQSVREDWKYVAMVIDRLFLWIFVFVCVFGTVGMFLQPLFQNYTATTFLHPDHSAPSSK

CN1CC[C@]23c4c5ccc(O)c4O[C@H]2[C@@H](O)C=C[C@H]3[C@H]1C5 [Morphine]
latency to thermal stimulus (Kunming mice): highest latency

CC[C@H](C)[C@@H]1NC(=O)[C@H](CCC(=O)O)NC(=O)[C@@H]2CCCN2C(=O)[C@H](Cc2c[nH]cn2)NC(=O)[C@H](CC(=O)O)NC(=O)[C@H](C(C)C)NC(=O)[C@H](CC(N)=O)NC(=O)[C@@H]2CSSC[C@H](NC(=O)CNC(=O)[C@@H](N)CCSC)C(=O)N[C@@H](CSSC[C@@H](C(=O)O)NC1=O)C(=O)N[C@@H](CO)C(=O)N[C@@H](Cc1c[nH]cn1)C(=O)N1CCC[C@H]1C(=O)N[C@@H](C)C(=O)N2 [rLvIA]
loss of potency versus native LvIA (rat α3β2 nAChR): 18.5 fold
loss of potency versus native LvIA (human α3β2 nAChR): 2.7 fold
